Measurements from the supplement of paper PMC11061612.

Legend:
Assay in all cases: Bliss excess, mean over the matrix (fraction); higher = more synergy
[1] = tested on: G-292-Clone-A141B1 (Osteosarcoma)
Method in brief: (§1)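 Bliss excess equals the observed combination effect minus the expected value EA + EB − EA·EB, where EA and EB are the effects of each agent alone. Combination Emax is the second-highest inhibition within the matrix. Inhibition was scaled from CellTiter-Glo 2.0 luminescence, with 0 set by vehicle wells and 1 by blank wells, after 72 hours of two-drug dosing of cells plated in 1536-well plates.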

[2] = tested on: HCC2157 (Breast Carcinoma)
Method in brief: as §1

[3] = tested on: HT-29 (Colorectal Carcinoma)
Method in brief: as §1

[4] = tested on: SW1088 (Low Grade Glioma)
Method in brief: as §1

[5] = tested on: MDA-MB-157 (Breast Carcinoma)
Method in brief: as §1

[6] = tested on: TGBC24TKB (Biliary Tract Carcinoma)
Method in brief: as §1

CAL-78 (Chondrosarcoma) = tested on: CAL-78 (Chondrosarcoma)
Method in brief: as §1

[7] = tested on: IHH-4 (Thyroid Gland Carcinoma)
Method in brief: as §1

[8] = tested on: NALM-6 (B-Lymphoblastic Leukemia)
Method in brief: as §1

J82 (Bladder Carcinoma) = tested on: J82 (Bladder Carcinoma)
Method in brief: as §1

IGR-1 (Melanoma) = tested on: IGR-1 (Melanoma)
Method in brief: as §1

[9] = tested on: KATOIII (Gastric Carcinoma)
Method in brief: as §1

[10] = tested on: HPAC (Pancreatic Carcinoma)
Method in brief: as §1

[11] = tested on: DOV13 (Ovarian Carcinoma)
Method in brief: as §1

[12] = tested on: SUIT-2 (Pancreatic Carcinoma)
Method in brief: as §1

[13] = tested on: MFH-ino (Other Solid Carcinomas)
Method in brief: as §1

[14] = tested on: DB (B-Cell Non-Hodgkin's Lymphoma)
Method in brief: as §1

[15] = tested on: SW756 (Cervical Carcinoma)
Method in brief: as §1

[16] = tested on: EM-2 (Chronic Myelogenous Leukemia)
Method in brief: as §1

[17] = tested on: SW1990 (Pancreatic Carcinoma)
Method in brief: as §1

Structure (SMILES) | Bliss excess [1] | Bliss excess [2] | Bliss excess [3] | Bliss excess [4] | Bliss excess [5] | Bliss excess [6] | Bliss excess (CAL-78 (Chondrosarcoma)) | Bliss excess [7] | Bliss excess [8] | Bliss excess (J82 (Bladder Carcinoma)) | Bliss excess (IGR-1 (Melanoma)) | Bliss excess [9] | Bliss excess [10] | Bliss excess [11] | Bliss excess [12] | Bliss excess [13] | Bliss excess [14] | Bliss excess [15] | Bliss excess [16] | Bliss excess [17]
COc1cccc(OCCCN)c1-c1cc(Nc2cnc(C#N)cn2)n[nH]1 [Prexasertib] + CCc1c2c(nc3ccc(O)cc13)-c1cc3c(c(=O)n1C2)COC(=O)[C@]3(O)CC [SN-38] (first compound max 1 µM, 7x7, partner max 0.3 µM) | 0.0081 | 0.0649 | -0.0022 | 0.0128 | 0.0027 | 0.0191 | -0.0348 | -0.0653 | -0.0555 | -0.0177 | 0.0316 | -0.0168 | 0.0446 | -0.0444 | -0.0582 | -0.0321 | -0.0299 | -0.0542 | -0.0352 | -0.0551
COc1cccc(OCCCN)c1-c1cc(Nc2cnc(C#N)cn2)n[nH]1 [Prexasertib] + CN(C)CCCOc1ccc(-c2ccc3ncc4c(c3c2)n(C2CCOCC2)c(=O)n4C)cn1 [AZD0156] (first compound max 1 µM, 7x7, partner max 1 µM) | -0.0849 | -0.0366 | -0.0343 | -0.0241 | -0.0226 | -0.0414 | -0.0165 | 0.0504 | 0.0002 | 0.0036 | 0.0399 | -0.0053 | 0.0404 | -0.0227 | -0.0055 | 0.0142 | 0.0289 | -0.0179 | -0.0279 | -0.0247
COc1cccc(OCCCN)c1-c1cc(Nc2cnc(C#N)cn2)n[nH]1 [Prexasertib] + C[C@@H]1COCCN1C2=NC(=NC(=C2)C3(CC3)[S@](=N)(=O)C)C4=C5C=CNC5=NC=C4 [AZD6738] (first compound max 1 µM, 7x7, partner max 10 µM) | 0.0477 | -0.0145 | -0.0361 | -0.0192 | -0.0256 | -0.0038 | -0.0331 | 0.0132 | -0.0522 | -0.0198 | -0.0091 | 0.0124 | -0.0351 | 0.0179 | -0.03 | 0.0457 | -0.0569 | -0.0307 | -0.0344 | -0.0446
COc1cccc(OCCCN)c1-c1cc(Nc2cnc(C#N)cn2)n[nH]1 [Prexasertib] + Cc1cc2ncnn2cc1Nc1ncc2c(n1)n(C1CCOCC1)c(=O)n2C [AZD7648] (first compound max 1 µM, 7x7, partner max 10 µM) | -0.049 | -0.0315 | -0.0377 | -0.0975 | -0.0594 | -0.0412 | -0.0473 | -0.0109 | -0.044 | 0.0089 | 0.0116 | 0.0048 | -0.0074 | 0.0069 | -0.0063 | -0.0301 | -0.0319 | 0.0098 | -0.0274 | -0.0317
COc1cccc(OCCCN)c1-c1cc(Nc2cnc(C#N)cn2)n[nH]1 [Prexasertib] + O=C(c1cc(Cc2n[nH]c(=O)c3ccccc23)ccc1F)N1CCN(C(=O)C2CC2)CC1 [Olaparib] (first compound max 1 µM, 7x7, partner max 10 µM) | -0.0443 | -0.0113 | -0.0732 | -0.0707 | -0.104 | -0.0191 | -0.0535 | -0.0827 | -0.0087 | 0.033 | 0.0102 | -0.149 | -0.149 | 0.0032 | -0.0219 | -0.0326 | -0.0327 | 0.0038 | 0.0164 | -0.0617
COc1cc2c(cc1OCCCCCOc1cc3c(cc1OC)C(=O)N1C=C(C)C[C@H]1C=N3)N=C[C@@H]1CC(C)=CN1C2=O [SG3199] + O=C(c1cc(Cc2n[nH]c(=O)c3ccccc23)ccc1F)N1CCN(C(=O)C2CC2)CC1 [Olaparib] (first compound max 0.001 µM, 7x7, partner max 10 µM) | -0.0571 | 0.0277 | -0.0261 | -0.0511 | -0.0185 | -0.0087 | -0.0831 | -0.0115 | -0.0302 | 0.0123 | -0.0189 | -0.0365 | -0.0232 | -0.0443 | -0.0029 | -0.0739 | -0.0272 | 0.0091 | 0.0107 | -0.049
CCc1c2c(nc3ccc(O)cc13)-c1cc3c(c(=O)n1C2)COC(=O)[C@]3(O)CC [SN-38] + CN(C)CCCOc1ccc(-c2ccc3ncc4c(c3c2)n(C2CCOCC2)c(=O)n4C)cn1 [AZD0156] (first compound max 0.3 µM, 7x7, partner max 1 µM) | -0.0508 | 0.142 | 0.0693 | 0.0324 | 0.0653 | 0.0476 | -0.0547 | 0.0457 | 0.0336 | -0.0299 | 0.0179 | -0.0305 | 0.0584 | -0.0192 | 0.0446 | -0.0032 | -0.0305 | -0.0273 | 0.0812 | -0.0091
C[C@@H](c1ccc2nccn2c1)n1nnc2ncc(-c3cnn(C)c3)nc21 [Savolitinib] + CC1(C)CCC(CN2CCN(c3ccc(C(=O)NS(=O)(=O)c4ccc(NCC5CCOCC5)c([N+](=O)[O-])c4)c(Oc4cnc5[nH]ccc5c4)c3)CC2)=C(c2ccc(Cl)cc2)C1 [Venetoclax] (first compound max 1 µM, 7x7, partner max 1 µM) | -0.0442 | 0.0068 | -0.0358 | -0.0115 | -0.0411 | -0.0283 | -0.0872 | -0.0399 | 0.01 | -0.0895 | -0.0583 | -0.0364 | -0.084 | -0.0552 | -0.0737 | -0.0657 | 0.0216 | -0.0923 | -0.0593 | -0.0219
C[C@@H](c1ccc2nccn2c1)n1nnc2ncc(-c3cnn(C)c3)nc21 [Savolitinib] + Cc1c2c(nn1C)CSCc1cc(n(C)n1)CSc1cc(c3ccccc3c1)OCCCc1c(C(=O)O)n(C)c3c-2c(Cl)ccc13 [AZD5991] (first compound max 1 µM, 7x7, partner max 1 µM) | -0.0381 | -0.0289 | -0.0297 | 0.021 | -0.0501 | -0.029 | -0.117 | -0.0182 | -0.0141 | -0.0717 | -0.0112 | -0.0149 | -0.0586 | -0.0518 | -0.0224 | -0.0572 | 0.0299 | -0.0692 | -0.0401 | -0.0306
Cn1cnc2c(F)c(Nc3ccc(Br)cc3Cl)c(C(=O)NOCCO)cc21 [Selumetinib] + C=CCn1c(=O)c2cnc(Nc3ccc(N4CCN(C)CC4)cc3)nc2n1-c1cccc(C(C)(C)O)n1 [AZD1775] (first compound max 10 µM, partner max 1 µM) | -0.0458 | 0.0111 | -0.0432 | -0.0468 | 0.0096 | -0.0027 | -0.07 | -0.0083 | 0.0755 | -0.0614 | 0.0466 | 0.0186 | -0.0467 | -0.0631 | -0.0417 | -0.0316 | -0.193 | -0.0882 | -0.0618 | 0.0134
Cn1cnc2c(F)c(Nc3ccc(Br)cc3Cl)c(C(=O)NOCCO)cc21 [Selumetinib] + CC(C)n1c(=O)n(C)c2cnc3cc(F)c(-c4ccc(OCCCN5CCCCC5)nc4)cc3c21 [AZD1390] (first compound max 10 µM, 7x7, partner max 0.3 µM) | -0.0567 | 0.002 | -0.0043 | -0.0368 | -0.032 | -0.109 | -0.0665 | -0.0326 | -0.0248 | 0.0142 | -0.0297 | 0.011 | -0.0401 | -0.0576 | -0.0294 | -0.023 | -0.0488 | -0.019 | 0.0304 | -0.0434
Cn1cnc2c(F)c(Nc3ccc(Br)cc3Cl)c(C(=O)NOCCO)cc21 [Selumetinib] + CCN(CCO)CCCOc1ccc2c(Nc3cc(CC(=O)Nc4cccc(F)c4)[nH]n3)ncnc2c1 [AZD2811] (first compound max 10 µM, 7x7, partner max 1 µM) | -0.0367 | 0.0194 | -0.0042 | -0.0456 | -0.0064 | 0.003 | -0.0522 | -0.0209 | 0.0318 | -0.0611 | -0.007 | -0.0148 | 0.0816 | -0.0915 | -0.0526 | -0.045 | -0.125 | -0.008 | -0.0526 | -0.0292
Cn1cnc2c(F)c(Nc3ccc(Br)cc3Cl)c(C(=O)NOCCO)cc21 [Selumetinib] + C[C@@H]1COCCN1C2=NC(=NC(=C2)C3(CC3)[S@](=N)(=O)C)C4=C5C=CNC5=NC=C4 [AZD6738] (first compound max 10 µM, 7x7, partner max 10 µM) | -0.0303 | 0.0059 | -0.019 | -0.0737 | -0.0203 | 0.0704 | -0.0911 | 0.0224 | -0.0063 | 0.0262 | 0.0257 | -0.0433 | -0.0015 | -0.11 | 0.0298 | 0.0029 | -0.0353 | 0.0323 | 0.0264 | -0.0653
CC(=O)Nc1cccc(-n2c(=O)n(C3CC3)c(=O)c3c(Nc4ccc(I)cc4F)n(C)c(=O)c(C)c32)c1 [Trametinib] + Cc1nc(-c2cn3c(n2)-c2ccc(-c4cnn(C(C)(C)C(N)=O)c4)cc2OCC3)n(C(C)C)n1 [Taselisib] (first compound max 1 µM, 7x7, partner max 10 µM) | 0.0804 | 0.0554 | 0.0526 | 0.0579 | 0.0963 | 0.196 | 0.0728 | -0.0242 | -0.0228 | 0.0623 | 0.15 | 0.0938 | 0.0762 | 0.136 | 0.0928 | 0.148 | -0.004 | 0.0988 | 0.319 | 0.148
CC1(C)CCC(CN2CCN(c3ccc(C(=O)NS(=O)(=O)c4ccc(NCC5CCOCC5)c([N+](=O)[O-])c4)c(Oc4cnc5[nH]ccc5c4)c3)CC2)=C(c2ccc(Cl)cc2)C1 [Venetoclax] + C1CN(CCC1(C(=O)N[C@@H](CCO)C2=CC=C(C=C2)Cl)N)C3=NC=NC4=C3C=CN4 [Capivasertib] (first compound max 1 µM, 7x7, partner max 3 µM) | -0.0701 | -0.0055 | -0.0325 | -0.0578 | -0.0187 | 0.0325 | -0.0387 | -0.0187 | 0.0346 | -0.0827 | -0.0602 | -0.0691 | -0.0234 | -0.0028 | -0.0663 | -0.0294 | 0.0332 | -0.0171 | -0.0593 | -0.064
